Tests used:
[1] = target: apamine binding sites in bovine cerebral membranes (apamine-sensitive potassium channels); test: Binding of ^125 I-apamine to bovine cerebral membranes; settings: ^125 I-apamine 30 pM; calf hippocampus membranes; pH 7.4; 60 min on ice
Experimental: 1) Binding of ^125 I-apamine to bovine cerebral membranes
Calfbrains were obtained from the local abattoir. The hippocampus was prepared on ice and a membrane suspension was made up by homogenization twice in buffer (100 mM Tris-HCl, KCl 5 mM, pH 7.4) and centrifugation at 43,000×g. In a total volume of 500 μl, the incubation mixture contained 200 μg of membrane protein, 30 pM ^125 I-apamine and test substances in the concentration range 1×10^-9 to 1×10^-4 M. The non-specific binding of ^125 I-apamine was determined in the presence of 1×10^-7 M unlabelled apamine.
After preincubation for 30 min at room temperature (test substances and membrane homogenate), the samples were placed on ice for 10 min before the radioligand was added. The main incubation time was 60 min on ice. When the reaction time had elapsed, an excess of ice-cooled incubation buffer was added to each sample and the mixture was filtered with suction through cellulose acetate/nitrate membrane filters. The amount of bound ^125 I-apamine was measured with a gamma counter.

[2] = tested on: apamine-sensitive rubidium efflux in PC12 cells (potassium channels); test: Non-radioactive Rb+ efflux assay for the identification of potassium channel modulators; assay type: cell-based; settings: Rattus norvegicus, PC-12, 10 min, at a test concentration of 10 μM, 50 mM KCl depolarization
Experimental: 2) Non-radioactive Rb^+ efflux assay for the identification of potassium channel modulators
The potassium in PC12 cells is exchanged with rubidium, which is not present in the cells. This exchange is performed by incubating the cells over a period of 4 h in a physiological buffer containing 5.4 mM RbCl without KCl. This rubidium subsequently serves as a tracer for potassium.
The cells laden with Rb^+ in this way are washed three times and then stimulated by depolarization with 50 mM KCl to open potassium channels (10 min), causing Rb^+ to flow out of the cells into the supernatant according to the concentration gradient.
The rubidium contents in the cell supernatant and in the residual cells after they have been lysed with 1% Triton X-100 are then determined by means of atomic absorption spectroscopy. The relative proportion of rubidium in the cell supernatant (=Rb^+ efflux) is used as a measure of the potassium channel activity.
The effect of substances on the channel activity is measured by co-incubating the test substance over the ten-minute stimulation period and determining its effect on the Rb^+ efflux in the manner described above.

| Structure (SMILES) | Ki [1] | inhibition at 10 µM [2] |
| --- | --- | --- |
| c1ccc2c(N3CCCN(c4ccnc5ccccc45)CC3)ccnc2c1 [Example 1] | 780 nM | – |
| Cc1cc(N2CCCN(c3cc(C)nc4cccc(O)c34)CC2)c2c(O)cccc2n1 [Example 7] | – | 58% |
| Cc1cc(N2CCCN(c3cc(C)nc4c(C)cccc34)CC2)c2cccc(C)c2n1 [Example 12] | 35 nM | 73% |
